Where two headings read alike, the source gives them in different places.

From patent US9227971B2, “Pyrazolo[1,5-a]pyrimidine compounds as mTOR inhibitors” (Merck Sharp & Dohme Corp., priority 2010, dated 2016) come the findings set out here.

The subject of experiment [1] is phosphorylated 4E-BP1 Thr37/46 (p4E-BP1 Thr37/46), mTORC1 activity, PC3 cells. Put plainly: mTOR target engagement assay, immunofluorescent cell-based, p4E-BP1 Thr37/46 readout (mTORC1 activity). Particulars: read-out: p4E-BP1 Thr37/46 IC50. In short, it runs like this: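 Cell-based immunofluorescence in PC3 cells: serially diluted compounds (0.25% DMSO, 5% FBS) applied for ninety minutes at 37° C before fixation and overnight 4° C staining of p4E-BP1 Thr37/46. Untreated DMSO wells set maximal phosphorylation; IC50 obtained by logistic fitting.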

For experiment [2], the system named is phosphorylated AKT Ser473 (pAKT S473), mTORC2 activity, PC3 cells. Briefly: mTOR target engagement assay, immunofluorescent cell-based, pAKT S473 readout (mTORC2 activity). The method in brief:
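After blocking, cells were stained overnight at 4 °C with anti-pAKT S473 antibody, then a fluorescent secondary; inhibition was read as reduced fluorescence intensity.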

The mark [3] stands for this setting: Homo sapiens, PC-3, PC3 cells, compound treatment ninety minutes at 37° C.
Setting [4] is: Homo sapiens, PC-3, Table 3-1, PC3 cells.

Take `CNC(=O)N1[C@@H]2CC[C@H]1C[C@H](c1nc3c(-c4ccc(-c5ccccc5)nc4)cnn3c(N)c1C1CC1)C2` [Compound 4.4, (1R,3a,5S)-3-(7-amino-6-cyclopropyl-3-(6-phenylpyridin-3-yl)pyrazolo[1,5-a]pyrimidin-5-yl)-N-methyl-8-azabicyclo[3.2.1]octane-8-carboxamide]: the IC50 in experiment [1] (setting [3]) lay in the range of 100 to 1000 nM; in experiment [2] (setting [3]) it was 1 to 100 nM.

Regarding `CCOc1ccc(-c2ccc(-c3cnn4c(N)c(C5CC5)c([C@@H]5C[C@H]6CC[C@@H](C5)N6C(=O)c5nnc[nH]5)nc34)cn2)cc1` [Compound 4.13, ((1R,3s,5S)-3-(7-amino-6-cyclopropyl-3-(6-(4-ethoxyphenyl)pyridin-3-yl)pyrazolo[1,5-a]pyrimidin-5-yl)-8-azabicyclo[3.2.1]octan-8-yl)(4H-1,2,4-triazol-3-yl)methanone], the IC50 in experiment [1] (setting [3]) and in experiment [2] (setting [3]) was 100 to 1000 nM in each case.

On to `Cc1[nH]nc(-c2ccc(-c3cnn4c(N)c(C5CC5)c([C@@H]5C[C@H]6CC[C@@H](C5)N6C(=O)c5nnc[nH]5)nc34)cn2)c1F` [Compound 4.19, ((1R,3s,5S)-3-(7-amino-6-cyclopropyl-3-(6-(4-fluoro-5-methyl-1H-pyrazol-3-yl)pyridin-3-yl)pyrazolo[1,5-a]pyrimidin-5-yl)-8-azabicyclo[3.2.1]octan-8-yl)(4H-1,2,4-triazol-3-yl)methanone], for which the IC50 in experiment [1] (setting [3]) and in experiment [2] (setting [3]) was 100 to 1000 nM each time.

On to `[2H]C([2H])([2H])n1ccc(-c2ccc(-c3cnn4c(N)c(C(C)=O)c([C@@H]5C[C@H]6CC[C@@H](C5)N6C(=O)CO)nc34)cn2)n1` [Compound 1.1.84, 1-((1R,3s,5S)-3-(6-acetyl-7-amino-3-(6-(1-methyl-(D3)-1H-pyrazol-3-yl)pyridin-3-yl)pyrazolo[1,5-a]pyrimidin-5-yl)-8-azabicyclo[3.2.1]octan-8-yl)-2-hydroxyethanone], for which the IC50 in experiment [1] (setting [3]) and in experiment [2] (setting [3]) was 1 to 100 nM in each case.

As for `CC(=O)c1c([C@@H]2C[C@H]3CC[C@@H](C2)N3C(N)=O)nc2c(-c3ccc(-c4cnn(C)c4)nc3)cnn2c1N` [Compound 1.1.175, (1R,3s,5S)-3-(6-acetyl-7-amino-3-(6-(1-methyl-1H-pyrazolo-4-yl)pyridin-3-yl)pyrazolo[1,5-a]pyrimidin-5-yl)-8-azabicyclo[3.2.1]octane-8-carboxamide], the IC50 in experiment [1] (setting [3]) lay in the range of 100 to 1000 nM; in experiment [2] (setting [3]), 1 to 100 nM.

As for `CCn1ccc(-c2ccc(-c3cnn4c(N)c(C(C)=O)c([C@@H]5C[C@H]6CC[C@@H](C5)N6C(=O)CO)nc34)cn2)n1` [Compound 1.1.137, 1-((1R,3s,5S)-3-(6-acetyl-7-amino-3-(6-(1-ethyl-1H-pyrazol-3-yl)pyridin-3-yl)pyrazolo[1,5-a]pyrimidin-5-yl)-8-azabicyclo[3.2.1]octan-8-yl)-2-hydroxyethanone], the IC50 in experiment [1] (setting [3]) is 100 to 1000 nM; in experiment [2] (setting [3]), 1 to 100 nM.

`CC(=O)c1c([C@@H]2C[C@H]3CC[C@@H](C2)N3C(=O)c2nnc[nH]2)nc2c(-c3ccc(-n4ccnc4)nc3)cnn2c1N` [Compound 1.1.129, 1-(3-(6-(1H-imidazol-1-yl)pyridin-3-yl)-5-((1R,3s,5S)-8-(4H-1,2,4-triazole-3-carbonyl)-8-azabicyclo[3.2.1]octan-3-yl)-7-aminopyrazolo[1,5-a]pyrimidin-6-yl)ethanone]: the IC50 in experiment [1] (setting [3]) and in experiment [2] (setting [3]) was more than 10000 nM throughout.

Consider `CC(=O)Nc1ccc(-c2cnn3c(N)c(C(C)=O)c([C@@H]4C[C@H]5CC[C@@H](C4)N5C(=O)c4ncn[nH]4)nc23)cn1` [Compound 8.76, N-(5-(5-((1R,3s,5S)-8-(1H-1,2,4-triazole-5-carbonyl)-8-azabicyclo[3.2.1]octan-3-yl)-6-acetyl-7-aminopyrazolo[1,5-a]pyrimidin-3-yl)pyridin-2-yl)acetamide], for which the IC50 in experiment [1] (Homo sapiens, PC-3, PC3 cells) was in the range of 1 to 100 nM; in experiment [2] (Homo sapiens, PC-3, PC3 cells), 1 to 100 nM.

Regarding `CC(=O)c1c([C@@H]2C[C@H]3CC[C@@H](C2)N3C(=O)c2nnc[nH]2)nc2c(-c3ccc(-c4cccc(F)c4)nc3)cnn2c1N` [Compound 1.1.103, 1-(5-((1R,3r,5S)-8-(4H-1,2,4-triazole-3-carbonyl)-8-azabicyclo[3.2.1]octan-3-yl)-7-amino-3-(6-(3-fluorophenyl)pyridin-3-yl)pyrazolo[1,5-a]pyrimidin-6-yl)ethanone], the IC50 in experiment [1] (setting [3]) and in experiment [2] (setting [3]) was 1 to 100 nM throughout.

`CC(=O)c1c([C@@H]2C[C@H]3CC[C@@H](C2)N3C(=O)c2nnc(C)[nH]2)nc2c(-c3ccc(C(N)(C(F)(F)F)C(F)(F)F)nc3)cnn2c1N` [Compound 7.82, 1-(7-amino-3-(6-(2-amino-1,1,1,3,3,3-hexafluoropropan-2-yl)pyridin-3-yl)-5-((1R,3s,5S)-8-(5-methyl-4H-1,2,4-triazole-3-carbonyl)-8-azabicyclo[3.2.1]octan-3-yl)pyrazolo[1,5-a]pyrimidin-6-yl)ethanone]: the IC50 in experiment [1] (Homo sapiens, PC-3, PC3 cells) was 1000 to 10000 nM; in experiment [2] (Homo sapiens, PC-3, PC3 cells), 1000 to 10000 nM.

On to `COCCNc1nnc(C(=O)N2[C@@H]3CC[C@H]2C[C@H](c2nc4c(-c5ccc(-c6ccccc6)nc5)cnn4c(N)c2C2CC2)C3)[nH]1` [Compound 4.31, ((1R,3s,5S)-3-(7-amino-6-cyclopropyl-3-(6-phenylpyridin-3-yl)pyrazolo[1,5-a]pyrimidin-5-yl)-8-azabicyclo[3.2.1]octan-8-yl)(5-(2-methoxyethylamino)-4H-1,2,4-triazol-3-yl)methanone], for which the IC50 in experiment [1] (setting [3]) and in experiment [2] (setting [3]) was 1000 to 10000 nM in each case.

With `COc1ccc(-c2ccc(-c3cnn4c(N)c(C(C)=O)c([C@@H]5C[C@H]6CC[C@@H](C5)N6C(=O)c5nnc[nH]5)nc34)cn2)cc1F` [Compound 1.1.57, 1-(5-((1R,3s,5S)-8-(4H-1,2,4-triazole-3-carbonyl)-8-azabicyclo[3.2.1]octan-3-yl)-7-amino-3-(6-(3-fluoro-4-methoxyphenyl)pyridin-3-yl)pyrazolo[1,5-a]pyrimidin-6-yl)ethanone], the IC50 in experiment [1] (setting [3]) and in experiment [2] (setting [3]) was 1 to 100 nM each time.

In the case of `Nc1c(C2CC2)c([C@@H]2C[C@H]3CC[C@@H](C2)N3S(=O)(=O)c2nnc[nH]2)nc2c(-c3ccc(-c4ccccc4)nc3)cnn12` [Compound 4.3, 5-((1R,3a,5S)-8-(4H-1,2,4-triazol-3-ylsulfonyl)-8-azabicyclo[3.2.1]octan-3-yl)-6-cyclopropyl-3-(6-phenylpyridin-3-yl)pyrazolo[1,5-a]pyrimidin-7-amine], the IC50 in experiment [1] (setting [3]) and in experiment [2] (setting [3]) was 1000 to 10000 nM each time.

Consider `Cc1nnc(C(=O)N2[C@@H]3CC[C@H]2C[C@H](c2nc4c(-c5ccc(C6(O)CCC6)nc5)cnn4c(N)c2C2CC2)C3)[nH]1` [Compound 7.71, ((1R,3s,5S)-3-(7-amino-6-cyclopropyl-3-(6-(1-hydroxycyclobutyl)pyridin-3-yl)pyrazolo[1,5-a]pyrimidin-5-yl)-8-azabicyclo[3.2.1]octan-8-yl)(5-methyl-4H-1,2,4-triazol-3-yl)methanone], for which the IC50 was in the range of 100 to 1000 nM in experiment [1] (Homo sapiens, PC-3, PC3 cells) and 100 to 1000 nM in experiment [2] (Homo sapiens, PC-3, PC3 cells).

Take `CC(=O)c1c([C@@H]2C[C@H]3CC[C@@H](C2)N3C(=O)CO)nc2c(-c3ccc(-c4cccc(F)c4)nc3)cnn2c1N` [Compound 1.1.105, 1-((1R,3r,5S)-3-(6-acetyl-7-amino-3-(6-(3-fluorophenyl)pyridin-3-yl)pyrazolo[1,5-a]pyrimidin-5-yl)-8-azabicyclo[3.2.1]octan-8-yl)-2-hydroxyethanone]: the IC50 in experiment [1] (setting [3]) and in experiment [2] (setting [3]) was 100 to 1000 nM in each case.

In the case of `CC(=O)c1c([C@@H]2C[C@H]3CC[C@@H](C2)N3C(=O)c2nnc[nH]2)nc2c(-c3cnc4c(c3)CCCC4O)cnn2c1N` (stereo partly drawn) [Compound 7.59, 1-(5-((1R,3s,5S)-8-(4H-1,2,4-triazole-3-carbonyl)-8-azabicyclo[3.2.1]octan-3-yl)-7-amino-3-(8-hydroxy-5,6,7,8-tetrahydroquinolin-3-yl)pyrazolo[1,5-a]pyrimidin-6-yl)ethanone], the values for the IC50 in experiment [1] (PC3 cells) and in experiment [2] (PC3 cells) were 1 to 100 nM and 100 to 1000 nM, respectively.

`Nc1c(CO)c([C@@H]2C[C@H]3CC[C@@H](C2)N3C(=O)c2nnc[nH]2)nc2c(-c3ccc(-c4ccccc4)nc3)cnn12` [Compound 5.7, ((1R,3s,5S)-3-(7-amino-6-(hydroxymethyl)-3-(6-phenylpyridin-3-yl)pyrazolo[1,5-a]pyrimidin-5-yl)-8-azabicyclo[3.2.1]octan-8-yl)(4H-1,2,4-triazol-3-yl)methanone]: the IC50 in experiment [1] (setting [3]) and in experiment [2] (setting [3]) was 1 to 100 nM in each case.

For the molecule `Nc1c(C2CC2)c([C@H]2CC3CC[C@H](C2)N3C(=O)c2nnc[nH]2)nc2c(-c3cnc4c(c3)CCC4O)cnn12` (stereo partly drawn) [Compound 7.61, ((1R,3s,5S)-3-(7-amino-6-cyclopropyl-3-(7-hydroxy-6,7-dihydro-5H-cyclopenta[b]pyridin-3-yl)pyrazolo[1,5-a]pyrimidin-5-yl)-8-azabicyclo[3.2.1]octan-8-yl)(4H-1,2,4-triazol-3-yl)methanone], the IC50 lay in the range of 1 to 100 nM in experiment [1] (Homo sapiens, PC-3, PC3 cells) and 1 to 100 nM in experiment [2] (Homo sapiens, PC-3, PC3 cells).

As for `CN(C)c1nnc(C(=O)N2[C@@H]3CC[C@H]2C[C@H](c2nc4c(-c5ccc(-c6ccccc6)nc5)cnn4c(N)c2S(C)(=O)=O)C3)[nH]1` [Compound 3.93, ((1R,3s,5S)-3-(7-amino-6-(methylsulfonyl)-3-(6-phenylpyridin-3-yl)pyrazolo[1,5-a]pyrimidin-5-yl)-8-azabicyclo[3.2.1]octan-8-yl)(5-(dimethylamino)-4H-1,2,4-triazol-3-yl)methanone], the IC50 in experiment [1] (setting [4]) and in experiment [2] (setting [4]) was 100 to 1000 nM each time.
